# In ChEMBL document CHEMBL5034044, “Novel Compounds for Targeted Degradation of BRD9 and Their Use for Treating Cancer” (ACS Med Chem Lett, 2022):
# Target: T1, Bromodomain-containing protein 9 (Homo sapiens, UniProt Q9H8M2)
# T1 sequence (Q9H8M2 whole entry): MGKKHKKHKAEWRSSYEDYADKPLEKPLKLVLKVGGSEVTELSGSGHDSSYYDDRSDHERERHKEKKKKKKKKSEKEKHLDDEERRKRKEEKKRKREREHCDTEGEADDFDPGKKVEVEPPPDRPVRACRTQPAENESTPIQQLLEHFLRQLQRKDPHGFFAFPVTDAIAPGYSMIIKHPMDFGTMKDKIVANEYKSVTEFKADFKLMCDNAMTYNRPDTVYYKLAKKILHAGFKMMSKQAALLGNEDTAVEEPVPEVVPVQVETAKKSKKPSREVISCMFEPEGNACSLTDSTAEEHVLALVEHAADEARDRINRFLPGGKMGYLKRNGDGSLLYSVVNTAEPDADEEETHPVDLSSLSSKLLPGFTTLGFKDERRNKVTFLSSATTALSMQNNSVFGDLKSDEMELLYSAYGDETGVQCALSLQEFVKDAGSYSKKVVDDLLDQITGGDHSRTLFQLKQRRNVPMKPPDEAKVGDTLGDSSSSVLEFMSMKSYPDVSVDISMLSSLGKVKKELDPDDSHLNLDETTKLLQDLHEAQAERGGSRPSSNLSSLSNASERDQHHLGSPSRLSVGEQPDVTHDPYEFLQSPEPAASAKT
# Assay: Induction of degradation of BRD9 (unknown origin) assessed as protein degradation measured after 2 hrs by HiBit Lytic assay
row,DC50 [nM],SMILES
1,< 100,COc1cc(-c2cn(C)c(=O)c3cnccc23)c(Cl)cc1CN1CCC(N2CCN(c3ccc(NC4CCC(=O)NC4=O)cc3F)CC2)C(F)(F)C1 (stereo unspecified)
2,< 100,COc1cc(-c2cn(C)c(=O)c(C)c2C)cc(OC)c1CN1CCN(C(=O)CC2CCN(c3ccc(NC4CCC(=O)NC4=O)cc3C(F)(F)F)CC2)CC12CC2 (stereo unspecified)
3,< 100,CC(c1ccc(-c2cn(C)c(=O)c3cc(F)ccc23)cc1OC(F)(F)F)N1CCC(C2CCN(c3ccc(NC4CCC(=O)NC4=O)cc3F)CC2)CC1 (stereo unspecified)
4,< 100,COc1cc(-c2cn(C)c(=O)c(C)c2C)cc(Cl)c1CN1CCC(N2CCN(c3ccc(NC4CCC(=O)NC4=O)cc3F)CC2)C(F)(F)C1 (stereo unspecified)
5,< 100,COc1cc(-c2cn(C)c(=O)c3[nH]ncc23)cc(OC)c1CN1CCc2c(CN3CCC(c4ccc(NC5CCC(=O)NC5=O)cc4)C(F)(F)C3)csc2C1 (stereo unspecified)
6,< 100,COc1cc(-c2cn(C)c(=O)c3[nH]ncc23)cc(OC)c1CN1CCC2(CC1)CN(C(=O)CN1CCC(c3ccc(NC4CCC(=O)NC4=O)cc3)CC1)C2 (stereo unspecified)
